Laboratory results taken from ChEMBL document CHEMBL2069259, “Preclinical strategy to reduce clinical hepatotoxicity using in vitro bioactivation data for >200 compounds” (Chem Res Toxicol, 2012).

What was measured:
Liver microsomes [1] = assay: Metabolic stability in human liver microsomes assessed as high signal/noise ratio (S/N of >100) by measuring GSH adduct formation at 100 uM after 90 mins by HPLC-MS analysis; settings: 1.5 h
Liver microsomes [2] = assay: Metabolic stability in human liver microsomes assessed as GSH adduct formation at 100 uM after 90 mins by HPLC-MS analysis; settings: 1.5 h

Compound	Stability (Liver microsomes [1])	Stability (Liver microsomes [2])
COc1cc(NS(C)(=O)=O)ccc1Nc1c2ccccc2nc2ccccc12 [AMSACRINE]	Unstable	–
Cn1cnc([N+](=O)[O-])c1Sc1ncnc2nc[nH]c12 [AZATHIOPRINE]	Unstable	–
C[C@H]1[C@H](NC(=O)/C(=N\OC(C)(C)C(=O)O)c2csc(N)n2)C(=O)N1S(=O)(=O)O [AZTREONAM]	Unstable	–
CS(=O)(=O)OCCCCOS(C)(=O)=O [BUSULFAN]	Unstable	–
NC(=O)N1c2ccccc2C=Cc2ccccc21 [CARBAMAZEPINE]	Unstable	–
CO/N=C(\C(=O)N[C@@H]1C(=O)N2C(C(=O)O)=C(CSc3nc(=O)c(=O)[nH]n3C)CS[C@H]12)c1csc(N)n1 [CEFTRIAXONE]	Unstable	–
CN/C(=N/CCSCc1nc[nH]c1C)NC#N [CIMETIDINE]	Unstable	–
O=C(O)[C@H]1/C(=C/CO)O[C@@H]2CC(=O)N21 [CLAVULANIC ACID]	Unstable	–
CC(=O)[C@@]1(O)CC[C@H]2[C@@H]3C=C(Cl)C4=CC(=O)[C@@H]5C[C@@H]5[C@]4(C)[C@H]3CC[C@@]21C [CYPROTERONE]	Unstable	–
CN(C)/N=N/c1[nH]cnc1C(N)=O [DACARBAZINE]	Unstable	–
COc1cc([C@@H]2c3cc4c(cc3[C@@H](O[C@@H]3O[C@@H]5CO[C@@H](C)O[C@H]5[C@H](O)[C@H]3O)[C@H]3COC(=O)[C@H]23)OCO4)cc(OC)c1O [ETOPOSIDE]	Unstable	–
CC(C)(C)NC(=O)[C@H]1CC[C@H]2[C@@H]3CC[C@H]4NC(=O)C=C[C@]4(C)[C@H]3CC[C@]12C [FINASTERIDE]	–	Stable
O=c1[nH]c(=O)n([C@H]2C[C@H](O)[C@@H](CO)O2)cc1F [FLOXURIDINE]	–	Stable
OC(Cn1cncn1)(Cn1cncn1)c1ccc(F)cc1F [FLUCONAZOLE]	–	Stable
CC1(C)O[C@@H]2C[C@H]3[C@@H]4C[C@H](F)C5=CC(=O)C=C[C@]5(C)[C@H]4[C@@H](O)C[C@]3(C)[C@]2(C(=O)CO)O1 [FLUNISOLIDE]	Unstable	–
COc1ccccc1OCC(O)CO (stereo not drawn) [GUAIFENESIN]	–	Stable
COc1ccc2c3c1O[C@H]1C(=O)CC[C@H]4[C@@H](C2)N(C)CC[C@]314 [HYDROCODONE]	–	Stable
CN1CC[C@]23c4c5ccc(O)c4O[C@H]2C(=O)CC[C@H]3[C@H]1C5 [HYDROMORPHONE]	–	Stable
OCCOCCN1CCN(C(c2ccccc2)c2ccc(Cl)cc2)CC1 (stereo not drawn) [HYDROXYZINE]	–	Stable
CC(C)Cc1ccc(C(C)C(=O)O)cc1 (stereo not drawn) [IBUPROFEN]	–	Stable
COc1ccc2c(c1)c(CC(=O)O)c(C)n2C(=O)c1ccc(Cl)cc1 [INDOMETHACIN]	–	Stable
CC(CCc1ccccc1)NCC(O)c1ccc(O)c(C(N)=O)c1 (stereo not drawn) [LABETALOL]	–	Stable
Nc1nnc(-c2cccc(Cl)c2Cl)c(N)n1 [LAMOTRIGINE]	–	Stable

Compound	Stability (Liver microsomes [1])	Stability (Liver microsomes [2])
CC(C)C[C@H](N)C(=O)O [LEUCINE]	–	Stable
CCNC(=O)[C@@H]1CCCN1C(=O)[C@H](CCCNC(=N)N)NC(=O)[C@H](CC(C)C)NC(=O)[C@@H](CC(C)C)NC(=O)[C@H](Cc1ccc(O)cc1)NC(=O)[C@H](CO)NC(=O)[C@H](Cc1c[nH]c2ccccc12)NC(=O)[C@H](Cc1c[nH]cn1)NC(=O)[C@@H]1CCC(=O)N1 [LEUPROLIDE]	–	Stable
CNCCCC12CCC(c3ccccc31)c1ccccc12 [MAPROTILINE]	–	Stable
CCOC(=O)C1(c2ccccc2)CCN(C)CC1 [MEPERIDINE]	–	Stable
Sc1ncnc2nc[nH]c12 [MERCAPTOPURINE ANHYDROUS]	Unstable	–
C[C@@H](O)[C@H]1C(=O)N2C(C(=O)O)=C(S[C@@H]3CN[C@H](C(=O)N(C)C)C3)[C@H](C)[C@H]12 [MEROPENEM]	Unstable	–
C[C@H](N)[C@H](O)c1cccc(O)c1 [METARAMINOL]	–	Stable
CN[C@@H](C)Cc1ccccc1 [METHAMPHETAMINE]	–	Stable
CN(Cc1cnc2nc(N)nc(N)c2n1)c1ccc(C(=O)N[C@@H](CCC(=O)O)C(=O)O)cc1 [METHOTREXATE]	–	Stable
C[C@](N)(Cc1ccc(O)cc1)C(=O)O [METYROSINE]	–	Stable
Nc1cc(N2CCCCC2)nc(N)[n+]1[O-] [MINOXIDIL]	–	Unstable
CO[C@@]12[C@H](COC(N)=O)C3=C(C(=O)C(C)=C(N)C3=O)N1C[C@@H]1N[C@@H]12 [MITOMYCIN]	Unstable	–
NC(=O)C[S+]([O-])C(c1ccccc1)c1ccccc1 (stereo not drawn) [MODAFINIL]	–	Stable
CCc1nn(CCCN2CCN(c3cccc(Cl)c3)CC2)c(=O)n1CCOc1ccccc1 [NEFAZODONE]	–	Stable
CN(C)C(=O)Oc1cccc([N+](C)(C)C)c1.[Br-] [NEOSTIGMINE BROMIDE]	–	Stable
CC1(C)NC(=O)N(c2ccc([N+](=O)[O-])c(C(F)(F)F)c2)C1=O [NILUTAMIDE]	–	Stable
CC1COc2c(N3CCN(C)CC3)c(F)cc3c(=O)c(C(=O)O)cn1c23 (stereo not drawn) [OFLOXACIN]	–	Stable
Cc1cc2c(s1)Nc1ccccc1N=C2N1CCN(C)CC1 [OLANZAPINE]	–	Stable
Cc1ccccc1C(OCCN(C)C)c1ccccc1 (stereo not drawn) [ORPHENADRINE]	–	Stable
CN1CC[C@]23c4c5ccc(O)c4O[C@H]2C(=O)CC[C@@]3(O)[C@H]1C5 [OXYMORPHONE]	–	Stable
CCCCC1C(=O)N(c2ccccc2)N(c2ccc(O)cc2)C1=O (stereo not drawn) [OXYPHENBUTAZONE ANHYDROUS]	Unstable	–
NCCC(O)(P(=O)(O)O)P(=O)(O)O [PAMIDRONIC ACID]	–	Stable
CCC1(c2ccccc2)C(=O)NC(=O)NC1=O [PHENOBARBITAL]	–	Stable

Compound	Stability (Liver microsomes [1])	Stability (Liver microsomes [2])
CC(C)(N)Cc1ccccc1 [PHENTERMINE]	–	Stable
CCCCC1C(=O)N(c2ccccc2)N(c2ccccc2)C1=O [PHENYLBUTAZONE]	Unstable	–
O=C1NC(=O)C(c2ccccc2)(c2ccccc2)N1 [PHENYTOIN]	–	Stable
CO[C@H](C(=O)[C@@H](O)[C@@H](C)O)[C@@H]1Cc2cc3cc(O[C@H]4C[C@@H](O[C@H]5C[C@@H](O)[C@H](O)[C@@H](C)O5)[C@H](O)[C@@H](C)O4)c(C)c(O)c3c(O)c2C(=O)[C@H]1O[C@H]1C[C@@H](O[C@H]2C[C@@H](O[C@H]3C[C@](C)(O)[C@H](O)[C@@H](C)O3)[C@@H](O)[C@@H](C)O2)[C@H](O)[C@@H](C)O1 [PLICAMYCIN]	–	Stable
CC(=O)[C@H]1CC[C@H]2[C@@H]3CCC4=CC(=O)CC[C@]4(C)[C@H]3CC[C@]12C [PROGESTERONE]	–	Stable
NC(=O)c1cnccn1 [PYRAZINAMIDE]	–	Stable
C=C[C@H]1C[N@@]2CC[C@H]1C[C@@H]2[C@@H](O)c1ccnc2ccc(OC)cc12 [QUINIDINE]	Unstable	–
CCN1CCC[C@H]1CNC(=O)c1c(OC)ccc(Br)c1OC [REMOXIPRIDE]	–	Stable
CO[C@H]1/C=C/O[C@@]2(C)Oc3c(C)c(O)c4c(O)c(c(/C=N/N5CCN(C)CC5)c(O)c4c3C2=O)NC(=O)/C(C)=C\C=C\[C@H](C)[C@H](O)[C@@H](C)[C@@H](O)[C@@H](C)[C@H](OC(C)=O)[C@@H]1C [RIFAMPIN]	Unstable	–
O=P(O)(O)C(O)(Cc1cccnc1)P(=O)(O)O [RISEDRONIC ACID]	–	Stable
C#CCN(C)[C@H](C)Cc1ccccc1 [SELEGILINE]	Unstable	–
CCC(C)(C)C(=O)O[C@H]1C[C@@H](C)C=C2C=C[C@H](C)[C@H](CC[C@@H]3C[C@@H](O)CC(=O)O3)[C@H]21 [SIMVASTATIN]	Unstable	–
CC(C)NCC(O)c1ccc(NS(C)(=O)=O)cc1 (stereo not drawn) [SOTALOL]	–	Stable
CCN1CCCC1CNC(=O)c1cc(S(N)(=O)=O)ccc1OC (stereo not drawn) [SULPIRIDE]	–	Stable
CC/C(=C(\c1ccccc1)c1ccc(OCCN(C)C)cc1)c1ccccc1 [TAMOXIFEN]	–	Stable
COc1cc2nc(N3CCN(C(=O)C4CCCO4)CC3)nc(N)c2cc1OC (stereo not drawn) [TERAZOSIN]	–	Stable
C[C@]12CC[C@H]3[C@@H](CCC4=CC(=O)CC[C@@]43C)[C@@H]1CC[C@@H]2O [TESTOSTERONE]	–	Stable
Cc1cccc(Nc2ccncc2S(=O)(=O)NC(=O)NC(C)C)c1 [TORSEMIDE]	–	Stable
C[C@]12C=CC(=O)C=C1CC[C@H]1[C@@H]3C[C@@H](O)[C@](O)(C(=O)CO)[C@@]3(C)C[C@H](O)[C@@]12F [TRIAMCINOLONE]	–	Stable
CO[C@H]1C[C@H](O[C@H]2[C@H](C)[C@@H](O[C@@H]3O[C@H](C)C[C@H](N(C)C)[C@H]3OC(C)=O)[C@@H](C)C[C@@]3(CO3)C(=O)[C@H](C)[C@@H](OC(C)=O)[C@@H](C)[C@@H](C)OC(=O)[C@@H]2C)O[C@@H](C)[C@@H]1OC(C)=O [TROLEANDOMYCIN]	Unstable	–
Cc1cn([C@H]2C[C@H](N=[N+]=[N-])[C@@H](CO)O2)c(=O)[nH]c1=O [ZIDOVUDINE]	–	Stable
GENTAMICIN	–	Stable
